The values that follow come from patent US11214586B2, “Rhodamine triplet state complex and preparation and photodynamic therapy (PDT) study thereof” (SOUTHERN UNIVERSITY OF SCIENCE AND TECHNOLOGY, priority 2018, dated 2022).

Data set [1] deals with MCF-7 cells. The data set can be described thus: Phototoxicity, CCK-8 assay and calcein-AM/PI staining. In kind it is cell-based, human. The note with it: 11-W lamp. The protocol: • 1. MCF-7 cells were seeded at 8×10^3-1×10^4 cells/well in 96 well plates then incubated for 24 h in 5% CO2 at 37° C. The stock solutions of the complexes(10 mM in DMSO) were diluted to appropriate concentrations with the complete medium and added to the cells to give final complexes concentrations (1, 2, 5, 10 μM). After incubation for 2 h, the well plate were irradiated with 11 W lamp 30 min. To achieve more uniform irradiation, the entire well plate was gently orbited on the shaker. After the irradiation, the cells were again incubated for 2 h, after which the cytotoxicity was determined by CCK8 assay and expressed as a percent of the controls (cells exposed to light in the absence of the complexes). • 2. The MCF-7 cells(500 cells/well) were seeded in eight-well chambered coverglasses (lab-Tek, Nunc, USA), and then incubated for 24 h in 5% CO2 at 37° C. Next, added to complexes(rho-bpy, rho-bpy-Pt-ph, rho-bpy-Rh-ppy, rho-bpy-Re and rho-bpy-Ir-ppy) in medium make the final concentrations of 5 μM complexes. After incubation for 2 h, the eight-well plate were irradiated with 11 W lamp 30 min. The flowing, fixed with 4% paraformaldehyde solution. After staining with calcein-AM and (Propidium iodide) PI, Leica TCS SP5 confocal laser scanning microscope (GER) was used to observe the viable and dead cells.

The next data set deals with MCF-7 tumor-bearing mice. Nature of the data set: In vivo NIRF imaging, biodistribution and tumor accumulation. How it is done: The procedures were approved by the Animal Care and Use Committee (Shenzhen Institutes of Advanced Technology, Chinese Academy of Sciences). Four-8-week-old female BALB/c mice or nude mice (Vital River Laboratory Animal Technology Co. Ltd., China) were subcutaneously injected with MCF-7 cells (1×10^6) in the flank region.
The Maestro GNIR Flex imaging system and analysis with software from CRi was used to image tumor-bearing animals over time following i.v. treatment with Ir-Rho (200 μM, 150 μl). At each time point, the mouse was imaged at 600 nm excitation and 650 nm emission. At 24 h post injection, tumors and major organs were excised for ex vivo NIRF imaging to determine the tissue distribution of Ir-Rho. All main organs were cut with similar thickness and imaged at 600 nm excitation and 650 nm emission. The average fluorescence intensity of organs was from a region of interest (ROI) placed over the area of the organs on the image.

The test system of a further data set is 4T1. Nature of the data set: Selective uptake by flow cytometry. The class given is cell-based, mouse. The settings on record: 4T1, 5 μM, 2 h incubation. How it is done:
Tumor cells (MCF-7/A 549/HepG2/4T1) and normal cells (MCF-10A/293T/L02/NIH-3T3) (1×10^4 cells) was cultured in six-well plate for 12 h. and then Cells were changed with a medium containing 5 μM complexes (rho-bpy, rho-bpy-Pt-ph, rho-bpy-Rh-ppy, rho-bpy-Re and rho-bpy-Ir-ppy). Cells were washed three times with PBS after 2 h of incubation, Then the cells were harvested, and the fluorescence intensity of complexes were recorded by flow cytometer.
A general note: In flow cytometry, cells or beads pass a laser one at a time.

For data set [2], the system named is MCF-7 cells. The data set can be described thus: Intracellular ROS, DCFH-DA assay. In kind it is cell-based, human. The note with it: 5 μM, 11-W lamp for 30 min. How it is done: The MCF-7 cells were seeded in eight-well chambered coverglasses (lab-Tek, Nunc, USA) and six-well plate, incubated for 24 h in 5% CO2 at 37° C. Next, added to compounds (bpy-Rho and M-Rho) in medium make the final concentrations of 5 μM compounds. After irradiation treatment (11 W lamp 30 min), cells were promptly washed with PBS and incubated with 4 μg/ml 2′7′-dichloro-fluoreseindiacetate (DCFH-DA) for 30 min, and intracellular ROS generation was evaluated by flow cytometry and confocal microscopy.

[3] abbreviates: ex vivo NIRF, 24 h post-injection.

SMILES strings stand for the structures.

On to `CCN(CC)c1ccc2c(-c3ccnc(-c4cc(C)ccn4)c3)c3ccc(=[N+](CC)CC)cc-3oc2c1.F[P-](F)(F)(F)(F)F.F[P-](F)(F)(F)(F)F.c1ccc(-c2cccc[c]2[Ir+][c]2ccccc2-c2ccccn2)nc1` [Ir-Rho], for which the “cell death upon irradiation” value with MCF-7 cells [1] (concentration of 10 μM) is “Significant cell death”. Besides, the “PDT performance, ranking” value with MCF-7 cells [1] (among M-Rho) is recorded as “best PDT performance”. Besides, in the data set with MCF-7 tumor-bearing mice (setting [3]), the liver uptake entry is listed as “relatively low liver uptake” and the tumor accumulation result is reported as “good tumor accumulation”. The “time of peak tumor uptake” value in the data set on MCF-7 tumor-bearing mice (i.v. injection via the tail vein, 200 μM, 150 μl) turned out to be 24 h. Further, the “contrast index (CI)” value in the data set with 4T1 was “higher than 2.5”. For the same compound, the “intracellular ROS generation” value in the data set on MCF-7 cells [2] is on record as “highest ROS generation ability”.
